Laboratory results reported in US7504537B2, “Hydroxamic acid derivative and MMP inhibitor containing the same as active ingredient” (Dainippon Sumitomo Pharma Co., Ltd., priority 2001, dated 2009).

Assays:
MMP-1 = target: T1, MMP-1 (Homo sapiens, UniProt P03956); assay: Test 6 MMP-1 inhibition activity test; type: biochemical; conditions: MMP-1 from human rheumatic synovium fibroblast, activated with AMPA
T1 construct: calbiochem cat; purchased calbiochem 444208; host or cells: human rheumatic synovium fibroblast
T1 sequence (P03956 100-469): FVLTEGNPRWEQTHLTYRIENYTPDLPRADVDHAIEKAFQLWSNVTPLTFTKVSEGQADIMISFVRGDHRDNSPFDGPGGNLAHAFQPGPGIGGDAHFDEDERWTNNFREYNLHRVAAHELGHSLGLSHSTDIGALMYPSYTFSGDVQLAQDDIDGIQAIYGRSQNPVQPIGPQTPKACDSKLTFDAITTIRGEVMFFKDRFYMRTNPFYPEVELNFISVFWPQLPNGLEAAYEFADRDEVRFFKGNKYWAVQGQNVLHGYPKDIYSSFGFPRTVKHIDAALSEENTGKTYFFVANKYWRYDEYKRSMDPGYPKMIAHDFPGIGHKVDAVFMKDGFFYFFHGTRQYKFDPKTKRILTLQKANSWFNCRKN
Method: Test 6 MMP-1 Inhibition Activity Test
MMP-1 (stroma collagenase: EC3.4.24.7, human rheumatic synovium fibroblast, calbiochem cat. 444208) was activated with AMPA at 37° C. for 60 minutes. A test compound was preincubated with activated MMP-1 at 37° C. for 60 minutes in the reaction mixture containing 50 mM MOPS (pH 7.2), 10 mM aqueous calcium chloride solution, and 10 μM zinc chloride. Thereto was added 25 μM Mca-Pro-Leu-Dpa-Ala-Arg-NH2, and the mixture was incubated at 37° C. for 120 minutes. The enzyme activity was measured by fluorescence intensity of Mca-Pro-Leu-Gly, and IC50 was calculated.

[1] = tested on: degeneration of cartilage; assay: Test 8 Rat meniscectomy model test (in vivo); conditions: male SD (IGS) rats, 50 mg/kg orally once a day for 3 weeks; injured group = 100%
Method: Test 8 Rat Meniscectomy Model Test (in vivo)
For this test male rats (6 weeks old SD (IGS)) were used. A meniscus of joint of a right hind limb was partially removed. Compound of Example 2 was orally administered for 3 weeks once a day in the amount of 50 mg/kg. The tissue speciman of the joint was prepared, and stained with safranin O/first green, and the degeneration of cartilage was evaluated. The degree of the degeneration of cartilage in the test compound group was calculated as 100% of the degree of that in the injured group. Cartilage degeneration rate was 33% (*; p<0.05, Steel-test)

Adjuvant Arthritis = assay: Test 7 Adjuvant arthritis (in vivo); set-up: species or system rat; conditions: Lewis male rats, 50 mg/kg per os once a day for twelve days
Excerpt: Test 7 Adjuvant Arthritis (in vivo) For this test Lewis male rats were used. The suspension prepared by suspending Mycobacterium butyricum in liquid paraffin in concentration of 0.5% was subcutaneously injected in a right hind paw. Ten days later the rats in which the definite secondary inflammation on a left hind paw was observed were selected, and to the rats the compound (Example 2) suspended in 0.5% methyl cellulose was orally administered for twelve successive days once a day. Five hours later after finishing administration the volume of the hind paws was compared with the volume when the administration was initiated, and the inhibition activity of edema was evaluated based on this difference.

Row | Structure (SMILES) | IC50 (MMP-1) | further results
1 | CC(C)CN(C1(C(=O)NO)CCC1)S(=O)(=O)c1ccc(Oc2ccc(S(C)(=O)=O)cc2)cc1 [Example 18, N-Hydroxy-1-[isobutyl({4-[4-(methylsulfonyl)phenoxy]phenyl}sulfonyl)amino]cyclobutanecarboxamide] | 3.3 µM | –
2 | CCOC(=O)CN(CC(=O)NO)S(=O)(=O)c1ccc(Oc2ccc(S(C)(=O)=O)cc2)cc1 [Example 22, Ethyl N-{[(hydroxyamino)carbonyl]methyl}-N-({4-[4-(methylsulfonyl)phenoxy]phenyl}sulfonyl)-glycinate] | > 10 µM | –
3 | CCOC(=O)CCN(C1(C(=O)NO)CCCC1)S(=O)(=O)c1ccc(Oc2ccc(S(C)(=O)=O)cc2)cc1 [Example 26, Ethyl N-{1-[(hydroxyamino)carbonyl]cyclopentyl}-N-({4-[4-(methylsulfonyl)phenoxy]phenyl}sulfonyl)-β-alaninate] | 3.9 µM | –
4 | CCOCCN(C1(C(=O)NO)CCCC1)S(=O)(=O)c1ccc(Oc2ccc(S(C)(=O)=O)cc2)cc1 [Example 45, 1-[(2-Ethoxyethyl)({4-[4-(methylsulfonyl)phenoxy]phenyl}sulfonyl)amino]-N-hydroxycyclopentanecarboxamide] | 4.96 µM | –
5 | CC(C)CN(C1(C(=O)NO)CCCC1)S(=O)(=O)c1ccc(Oc2ccc(S(C)(=O)=O)cc2)cc1 [Example 2, N-hydroxy 1-[isobutyl({4-[4-(methylsulfonyl)phenoxy]phenyl}sulfonyl)amino]cyclopentanecarboxamide] | 7.21 µM | Cartilage degeneration rate [1]: 33%; Increase of edema, Non injected limb (Adjuvant Arthritis; control 1.07 ± 0.31): 0.74 ± 0.16 mL; Increase of edema, Injected limb (Adjuvant Arthritis; control −0.24 ± 0.45): -1.06 ± 0.47 mL
6 | CS(=O)(=O)c1ccc(Oc2ccc(S(=O)(=O)N(CC(=O)NO)Cc3ccncc3)cc2)cc1 [Example 42, N′^1′-Hydroxy-N′^2′-({4-[4-(methylsulfonyl)phenoxy]phenyl}sulfonyl)-N′^2′-(4-pyridinylmethyl)glycinamide] | > 10 µM | –
7 | CS(=O)(=O)c1ccc(Oc2ccc(S(=O)(=O)N(Cc3ccccc3)C3(C(=O)NO)CCOCC3)cc2)cc1 [Example 12, 4-[Benzyl({4-[4-(methylsulfonyl)phenoxy]phenyl}sulfonyl)amino]-N-hydroxytetrahydoro-2H-pyrane-4-carboxamide] | > 10 µM | –
8 | CCOC(=O)CN(C1(C(=O)NO)CCCC1)S(=O)(=O)c1ccc(Oc2ccc(S(C)(=O)=O)cc2)cc1 [Example 23, Ethyl N-{1-[(hydroxyamino)carbonyl]cyclopentyl}-N-({4-[4-(methylsulfonyl)phenoxy]phenyl}sulfonyl)glycinate] | > 10 µM | –
9 | CS(=O)(=O)c1ccc(Oc2ccc(S(=O)(=O)NCC(=O)NO)cc2)cc1 [Example 13, N′^1′-Hydroxy-N′^2′-({4-[4-(methylsulfonyl)phenoxy]phenyl}sulfonyl)glycinamide] | > 10 µM | –
